Results as given in patent US20230265116A1, “DEGRADATION OF (EGFR) BY CONJUGATION OF EGFR INHIBITORS WITH E3 LIGASE LIGAND AND METHODS OF USE” (BEIGENE, LTD., priority 2020, published 2023).

Target: T1, EGFR (HCC827 cells) (Homo sapiens, UniProt P00533, DEL746-750)
T1 construct: endogenous in cells; host or cells: HCC827
Test: EGFR degradation HTRF assay, HCC827 cells
Type: cell-based
Conditions: HCC827, 16h treatment; for Dmax: maximum percentage of degradation
Method: BaF3 WT(wild type), BaF3-LTC(L858R/T790M/C797S) and BaF3-DTC(Del19/T790M/C797S) cells are treated with compounds diluted in 0.2% DMSO cell culture medium and incubate for 16h, 37° C., 5% CO2, H1975-#36, H1975-#28, H1975-#23 and HCC827 cells are treated with compounds diluted in 0.2% DMSO cell culture medium on day 2, incubate for 16h, 37° C., 5% CO2.the final concentriation of compounds in all assay is start with 10 uM, 5-fold dilution, total 8 doses were included.
After 16h treatment, add HTRF lysis buffer to each well; seal the plate and incubate 1 hour at room temperature on a plate shaker; Once the cells are lysed, 16 μL of cell lysate are transferred to a PE 384-well HTRF detection plate; 4 μL of pre-mixed HTRF antibodies are added to each well; Cover the plate with a plate sealer, spin 1000 rpm for 1 min, Incubate overnight at room temperature; Read on BMG PheraStar with HTRF protocol (337 nm-665 nm-620 nm).
The inhibition (degradation) percentage of the compound was calculated by the following equation: Inhibition percentage of Compound=100-100×(Signal-low control)/(High control-low control), wherein signal=each test compound group
High control=Cell group with added DMSO and without compound, indicating microplate readings without EGFR degradation;
Dmax is the maximum percentage of inhibition (degradation).
The IC50 (DC50) value of a compound can be obtained by fitting the following equation
Y=Bottom+(TOP−Bottom)/(1+((IC50/X)^hillslope))
Wherein, X and Y are known values, and IC50, Hillslope, Top and Bottom are the parameters obtained by fitting with software. Y is the inhibition percentage (calculated from the equation), X is the concentration of the compound; IC50 is the concentration of the compound when the 50% inhibition is reached. The smaller the IC50 value is, the stronger the inhibitory ability of the compound is. Vice versa, the higher the IC50 value is, the weaker the inhibitory ability of the compound is; Hillslope represents the slope of the fitted curve, generally around 1*; Bottom represents the minimum value of the curve obtained by data fitting, which is generally 0%±20%; Top represents the maximum value of the curve obtained by data fitting, which is generally 100%±20%. The experimental data were fitted by calculating and analyzing with Dotmatics data analysis software.

T1 sequence (P00533 with tags, fused parts or gaps DEL746-750): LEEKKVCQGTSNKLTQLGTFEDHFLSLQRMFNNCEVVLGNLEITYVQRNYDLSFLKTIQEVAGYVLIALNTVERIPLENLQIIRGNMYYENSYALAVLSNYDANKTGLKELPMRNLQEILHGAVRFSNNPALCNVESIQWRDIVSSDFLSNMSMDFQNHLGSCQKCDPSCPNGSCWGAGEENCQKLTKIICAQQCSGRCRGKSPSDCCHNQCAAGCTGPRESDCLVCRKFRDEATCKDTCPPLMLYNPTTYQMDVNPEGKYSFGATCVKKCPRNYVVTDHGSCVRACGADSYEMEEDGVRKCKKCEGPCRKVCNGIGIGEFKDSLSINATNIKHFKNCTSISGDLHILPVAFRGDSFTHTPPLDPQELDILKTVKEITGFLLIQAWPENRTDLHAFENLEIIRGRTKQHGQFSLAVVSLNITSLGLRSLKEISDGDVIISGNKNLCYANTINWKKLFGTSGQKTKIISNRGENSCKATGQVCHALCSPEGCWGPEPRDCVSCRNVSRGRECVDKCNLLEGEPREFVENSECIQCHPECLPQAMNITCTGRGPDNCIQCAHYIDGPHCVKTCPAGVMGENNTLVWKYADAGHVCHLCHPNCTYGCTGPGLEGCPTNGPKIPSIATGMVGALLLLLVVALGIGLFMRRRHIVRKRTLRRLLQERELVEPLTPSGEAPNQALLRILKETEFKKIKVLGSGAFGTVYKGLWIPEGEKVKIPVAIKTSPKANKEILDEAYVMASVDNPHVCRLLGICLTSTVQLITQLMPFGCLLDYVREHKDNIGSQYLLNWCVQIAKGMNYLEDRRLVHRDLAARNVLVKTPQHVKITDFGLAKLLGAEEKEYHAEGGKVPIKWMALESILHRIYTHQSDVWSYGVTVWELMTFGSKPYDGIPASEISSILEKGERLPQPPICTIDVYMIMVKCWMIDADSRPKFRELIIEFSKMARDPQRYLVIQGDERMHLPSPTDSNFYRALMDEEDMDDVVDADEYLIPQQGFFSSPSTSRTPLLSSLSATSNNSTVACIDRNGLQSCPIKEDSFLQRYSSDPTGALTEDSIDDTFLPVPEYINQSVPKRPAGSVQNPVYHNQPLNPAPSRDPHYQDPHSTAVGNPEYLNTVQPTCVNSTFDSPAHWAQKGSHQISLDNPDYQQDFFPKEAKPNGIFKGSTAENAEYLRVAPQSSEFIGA

Compound | DC50 | Dmax
COc1cc(N2CCC(N3CCN(C(=O)C4CCN(CC5CCN(c6ccc7c(c6)C(=O)N(C6CCC(=O)NC6=O)C7=O)CC5)CC4)CC3)CC2)ccc1Nc1ncc(Cl)c(Nc2ccccc2NS(C)(=O)=O)n1 (centres unmarked) [Example 142, N-(2-((5-chloro-2-((4-(4-(4-(1-((1-(2-(2,6-dioxopiperidin-3-yl)-1,3-dioxoisoindolin-5-yl)piperidin-4-yl)methyl)piperidine-4-carbonyl)piperazin-1-yl)piperidin-1-yl)-2-methoxyphenyl)amino)pyrimidin-4-yl)amino)phenyl)methanesulfonamide] | 6.22 nM | 89.4%
COc1cc(N2CCC(N3CCN(C(=O)CCCCN4CCN(c5ccc6c(c5)C(=O)N(C5CCC(=O)NC5=O)C6=O)CC4)CC3)CC2)ccc1Nc1ncc(Cl)c(Nc2ccccc2NS(C)(=O)=O)n1 (centres unmarked) [Example 141, N-(2-((5-chloro-2-((4-(4-(4-(5-(4-(2-(2,6-dioxopiperidin-3-yl)-1,3-dioxoisoindolin-5-yl)piperazin-1-yl)pentanoyl)piperazin-1-yl)piperidin-1-yl)-2-methoxyphenyl)amino)pyrimidin-4-yl)amino)phenyl)methanesulfonamide] | 19.2 nM | 82%
COc1cc(N2CCN(CCc3ccc(C4CCC(=O)NC4=O)cc3)CC2)ccc1Nc1ncc(Cl)c(Nc2ccccc2N(C)S(C)(=O)=O)n1 (centres unmarked) [Example 133, N-(2-((5-chloro-2-((4-(4-(4-(2,6-dioxopiperidin-3-yl)phenethyl)piperazin-1-yl)-2-methoxyphenyl)amino)pyrimidin-4-yl)amino)phenyl)-N-methylmethanesulfonamide] | 39.1 nM | 78.2%
COc1cc(N2CCN(CCc3ccc(C4CCC(=O)NC4=O)cc3)CC2)c(C)cc1Nc1ncc(Br)c(Nc2ccc3nccnc3c2P(C)(C)=O)n1 (centres unmarked) [Example 86, 3-(4-(2-(4-(4-((5-bromo-4-((5-(dimethylphosphoryl)quinoxalin-6-yl)amino)pyrimidin-2-yl)amino)-5-methoxy-2-methylphenyl)piperazin-1-yl)ethyl)phenyl)piperidine-2,6-dione] | 66.7 nM | 81%
COc1cc(N2CCC(N3CCN(CC4CCC(c5ccc(N6CCC(=O)NC6=O)cc5)CC4)CC3)CC2)ccc1Nc1ncc(Cl)c(Nc2ccccc2P(C)(C)=O)n1 (centres unmarked) [Example 110, 1-(4-(4-((4-(1-(4-((5-chloro-4-((2-(dimethylphosphoryl)phenyl)amino)pyrimidin-2-yl)amino)-3-methoxyphenyl)piperidin-4-yl)piperazin-1-yl)methyl)cyclohexyl)phenyl)dihydropyrimidine-2,4(1H,3H)-dione] | 49.6 nM | 81.2%
CN(c1ccccc1Nc1nc(Nc2ccc(N3CC4(CN(CCc5ccc(NC6CCC(=O)NC6=O)cc5)C4)C3)c(F)c2)ncc1Cl)S(C)(=O)=O (centres unmarked) [Example 136, N-(2-((5-chloro-2-((4-(6-(4-((2,6-dioxopiperidin-3-yl)amino)phenethyl)-2,6-diazaspiro[3.3]heptan-2-yl)-3-fluorophenyl)amino)pyrimidin-4-yl)amino)phenyl)-N-methylmethanesulfonamide] | 68.5 nM | 79.5%
COc1cc(N2CCC(N3CCN(CCc4ccc(N5CCC(=O)NC5=O)cc4)CC3)CC2)ccc1Nc1ncc(Cl)c(Nc2ccccc2N(C)S(C)(=O)=O)n1 [Example 124, N-(2-((5-chloro-2-((4-(4-(4-(4-(2,4-dioxotetrahydropyrimidin-1(2H)-yl)phenethyl)piperazin-1-yl)piperidin-1-yl)-2-methoxyphenyl)amino)pyrimidin-4-yl)amino)phenyl)-N-methylmethanesulfonamide] | 81.6 nM | 80.8%
CCc1cc(Nc2ncc(Br)c(Nc3ccc4nccnc4c3P(C)(C)=O)n2)c(OC)cc1N1CCC(N2CCN(CCCOc3ccc(C4CCC(=O)NC4=O)cc3)CC2)CC1 (centres unmarked) [Example 18, 3-(4-(3-(4-(1-(4-((5-bromo-4-((5-(dimethylphosphoryl)quinoxalin-6-yl)amino)pyrimidin-2-yl)amino)-2-ethyl-5-methoxyphenyl)piperidin-4-yl)piperazin-1-yl)propoxy)phenyl)piperidine-2,6-dione] | 15.4 nM | 77.5%
COc1cc(N2CCC(N(C)CCc3ccc(C4CCC(=O)NC4=O)cc3)CC2)c(C)cc1Nc1ncc(Br)c(Nc2ccc3nccnc3c2P(C)(C)=O)n1 (centres unmarked) [Example 75, 3-(4-(2-((1-(4-((5-bromo-4-((5-(dimethylphosphoryl)quinoxalin-6-yl)amino)pyrimidin-2-yl)amino)-5-methoxy-2-methylphenyl)piperidin-4-yl)(methyl)amino)ethyl)phenyl)piperidine-2,6-dione] | 50.6 nM | 72.1%
COc1cc(N2CCC(N3CCN(CCC4CCN(c5ccc(N6CCC(=O)NC6=O)cc5)CC4)CC3)CC2)ccc1Nc1ncc(Cl)c(Nc2ccccc2NS(C)(=O)=O)n1 [Example 139, N-(2-((5-chloro-2-((4-(4-(4-(2-(1-(4-(2,4-dioxotetrahydropyrimidin-1(2H)-yl)phenyl)piperidin-4-yl)ethyl)piperazin-1-yl)piperidin-1-yl)-2-methoxyphenyl)amino)pyrimidin-4-yl)amino)phenyl) methanesulfonamide] | 53.6 nM | 75.7%

The remaining compounds from weak to strong by DC50, led by results:

DC50 | Dmax | Compound
189 nM | 79.6% | COc1cc(N2CCC(N3CCN(CCCOc4ccc(OC5CCC(=O)NC5=O)cc4)CC3)CC2)ccc1Nc1ncc(Cl)c(Nc2ccccc2P(C)(C)=O)n1 (centres unmarked) [Example 109, 3-(4-(3-(4-(1-(4-((5-chloro-4-((2-(dimethylphosphoryl)phenyl)amino)pyrimidin-2-yl)amino)-3-methoxyphenyl)piperidin-4-yl)piperazin-1-yl)propoxy)phenoxy)piperidine-2,6-dione]
57.5 nM | 86.2% | COc1cc(N2CCN(CCc3ccc(C4CCC(=O)NC4=O)cn3)CC2)c(C)cc1Nc1ncc(Br)c(Nc2ccc3nccnc3c2P(C)(C)=O)n1 (centres unmarked) [Example 87, 3-(6-(2-(4-(4-((5-bromo-4-((5-(dimethylphosphoryl)quinoxalin-6-yl)amino)pyrimidin-2-yl)amino)-5-methoxy-2-methylphenyl)piperazin-1-yl)ethyl)pyridin-3-yl)piperidine-2,6-dione]
45.8 nM | 80.8% | COc1cc(N2CCC(N3CCN(C(=O)CN4CCN(c5ccc6c(c5)C(=O)N(C5CCC(=O)NC5=O)C6)CC4)CC3)CC2)ccc1Nc1ncc(Cl)c(Nc2ccccc2N(C)S(C)(=O)=O)n1 (centres unmarked) [Example 130, N-(2-((5-chloro-2-((4-(4-(4-(2-(4-(2-(2,6-dioxopiperidin-3-yl)-3-oxoisoindolin-5-yl)piperazin-1-yl)acetyl)piperazin-1-yl)piperidin-1-yl)-2-methoxyphenyl)amino)pyrimidin-4-yl)amino)phenyl)-N-methylmethanesulfonamide]
32.2 nM | 58.5% | COc1cc(N2CCN(CCC3CCN(c4ccc(N5CCC(=O)NC5=O)cc4)CC3)CC2)c(C)cc1Nc1ncc(Br)c(Nc2ccc3nccnc3c2P(C)(C)=O)n1 [Example 94, 1-(4-(4-(2-(4-(4-((5-bromo-4-((5-(dimethylphosphoryl)quinoxalin-6-yl)amino)pyrimidin-2-yl)amino)-5-methoxy-2-methylphenyl)piperazin-1-yl)ethyl)piperidin-1-yl)phenyl)dihydropyrimidine-2,4(1H,3H)-dione]
19 nM | 80.8% | COc1cc(N2CCC(N3CCN(CCC4CCN(c5ccc(C6CCC(=O)NC6=O)cc5)CC4)CC3)CC2)ccc1Nc1ncc(Cl)c(Nc2ccccc2N(C)S(C)(=O)=O)n1 (centres unmarked) [Example 121, N-(2-((5-chloro-2-((4-(4-(4-(2-(1-(4-(2,6-dioxopiperidin-3-yl)phenyl)piperidin-4-yl)ethyl)piperazin-1-yl)piperidin-1-yl)-2-methoxyphenyl)amino)pyrimidin-4-yl)amino)phenyl)-N-methylmethanesulfonamide]
15.2 nM | 70.1% | COc1cc(N2CCC(N(C)CCC3CCN(c4ccc(C5CCC(=O)NC5=O)cc4)CC3)CC2)c(C)cc1Nc1ncc(Br)c(Nc2ccc3nccnc3c2P(C)(C)=O)n1 (centres unmarked) [Example 78, 3-(4-(4-(2-((1-(4-((5-bromo-4-((5-(dimethylphosphoryl)quinoxalin-6-yl)amino)pyrimidin-2-yl)amino)-5-methoxy-2-methylphenyl)piperidin-4-yl)(methyl)amino)ethyl)piperidin-1-yl)phenyl)piperidine-2,6-dione]
